Drawing on patent publication US9718825B2, “N-(4-(azaindazol-6-yl)-phenyl)-sulfonamides and their use as pharmaceuticals” (priority 2013, dated 2017), this text covers IC50 for ten compounds.

As a reminder, the IC50 is the concentration that inhibits the measured activity by half.

Assay [1] addresses recombinant human SGK-1 enzyme (Homo sapiens, UniProt O00141). Nature of the assay: Enzymatic activity assay: SGK-1 substrate peptide phosphorylation (Caliper lab-chip mobility shift). The settings on record: peptide substrate 1 μM, ATP 10 μM, 60 min at 37° C., read-out: IC50 values for inhibition of SGK-1 enzymatic activity. The format is biochemical.
The subject of assay [2] is SGK-1 dependent phosphorylation of GSK3beta in U2OS cells. Nature of the assay: SGK-1 dependent phosphorylation of GSK3beta in U2OS cells overexpressing recombinant SGK-1 and GSK3beta. It counts as cell-based, human. The settings on record: U2OS cells, 6 h incubation, ratio of phosphorylated GSK3beta to total GSK3beta; read-out: IC50 values for inhibition of SGK-1 dependent phosphorylation of GSK3beta in U2OS cells.

The subject of assay [3] is collagen type X (Col10a1) expression in mouse chondrogenic ATDC5 cells. Nature of the assay: Chondrocyte hypertrophic differentiation in mouse chondrogenic ATDC5 cells (collagen type X expression). It counts as cell-based. Particulars: Col10a1 expression by quantitative real-time PCR after two weeks of cell culture; read-out: IC50 values for the inhibition of collagen type X expression in mouse chondrogenic ATDC5 cells. The text has this:
D) Determination of the effect on chondrocyte hypertrophic differentiation in mouse chondrogenic ATDC5 cells
The ATDC5 cell assay was used as in vitro model to determine the effects of the compounds of the invention on chondrocyte hypertrophic differentiation by monitoring the expression levels of collagen type X (Col10a1) as specific marker of chondrocyte hypertrophy.
Background: ATDC5 cells are a clonal mouse embryonic cell line derived from multipotent AT805 teratocarcinoma cells (Atsumi, T. et al., A chondrogenic cell line derived from a differentiating culture of AT805 teratocarcinoma cells, Cell Differ. Dev. 1990, 30, 109-116). The cells can undergo insulin-dependent chondrogenic cell differentiation entailing distinct differentiation stages starting from an undifferentiated, subconfluent stage, a condensation stage, a cartilage nodule formation stage and a calcification stage within 45 days of in vitro culture. Chondrogenic differentiation can be shown by measuring the expression of the cartilage main collagen (Col2a1) and aggrecan (AGC1) and glycosaminoglycan-staining with Alcian Blue within two weeks after insulin-triggered differentiation, and hypertrophic differentiation can be monitored by the expression of collagen type X (Col10a1), a specific marker of chondrocyte hypertrophy within 21 days of in vitro culture. (Shukunami, C. et al., Chondrogenic Differentiation of Clonal Mouse Embryonic Cell Lne ATDC5 In Vitro: Differentiation-dependent Gene Expression of Parathyroid Hormone (PTH)/PTH-related Peptide Receptor, J. Cell Biol. 1996, 133, 457-468). Growth factor BMP-2 is known to stimulate cell differentiation and can stimulate early and late-phase ATDC5 differentiation (Shukunami, C. et al., Sequential Progression of the Differentiation Program by Bone Morphogenetic Protein-2 in Chondrogenic Cell Line ATDC5, Exp. Cell Res. 1998, 241, 1-11). Thyroid hormone triiodothyronine (T3) promotes hypertrophic differentiation of growth plate chondrocytes (Robson, H. et al., Thyroid Hormone Acts Directly on Growth Plate Chondrocytes to Promote Hypertrophic Differentiation and Inhibit Clonal Expansion and Cell Proliferation, Endocrinology 2000, 141, 3887-3897). Addition of BMP2 and T3 can accelerate ATDC5 hypertrophic differentiation leading to the strong induction Col10a1 expression between 10-14 days. SGK-inhibitors were added to differentiating ATDC5 cells for 14 days and Col10a1 gene expression was quantified to determine effects on chondrocyte hypertrophic differentiation.
Cell assay description: ATDC5 cells were maintained in 300 cm^2 tissue culture flasks in DMEM/Ham's F12+5% FCS supplemented with 10 μg/ml human transferrin, 30 nM sodium selenite, 50 μg/ml kanamycin and grown at 37° C. in 5% CO2 in 95% air. To initiate cell differentiation, 9.9×10^4 cells were plated in 24 well plates and grown for 2 days. Medium was exchanged with DMEM/Ham's F12+5% FCS supplemented with 10 μg/ml human transferrin, 30 nM sodium selenite, 50 μg/ml ascorbic acid and 1 μg/ml BMP2. The assay was run in triplicates, compounds were added in […], and medium changed every 2-3 days including supplementation of compound. At day 7 after initiation of cell differentiation, 1 μM T3 was used as additional supplement in the cell culture.
After two weeks of cell culture, RNA was isolated and converted to cDNA for determination of gene expression by quantitative real-time PCR. Cells were lysed in 600 μl of RLT-buffer (Qiagen) and total RNA was isolated using the RNA-easy Mini RNA isolation Kit (Qiagen) which was run on a Qiacube system (Qiagen) according to the supplier's instructions. RNA was isolated in 30 μl of pure water and the RNA content measured by UV-spectroscopy (Nanodrop, Peqlab). For cDNA synthesis 50 ng total RNA was reverse transcribed using the High Capacity cDNA Reverse Transcription Kit (Applied Biosystems, Product Number 4368813) according to the manufacturer's instructions. […]

Some results are limits rather than exact numbers.

Chain of recombinant human SGK-1 enzyme (O00141 whole entry, looked up): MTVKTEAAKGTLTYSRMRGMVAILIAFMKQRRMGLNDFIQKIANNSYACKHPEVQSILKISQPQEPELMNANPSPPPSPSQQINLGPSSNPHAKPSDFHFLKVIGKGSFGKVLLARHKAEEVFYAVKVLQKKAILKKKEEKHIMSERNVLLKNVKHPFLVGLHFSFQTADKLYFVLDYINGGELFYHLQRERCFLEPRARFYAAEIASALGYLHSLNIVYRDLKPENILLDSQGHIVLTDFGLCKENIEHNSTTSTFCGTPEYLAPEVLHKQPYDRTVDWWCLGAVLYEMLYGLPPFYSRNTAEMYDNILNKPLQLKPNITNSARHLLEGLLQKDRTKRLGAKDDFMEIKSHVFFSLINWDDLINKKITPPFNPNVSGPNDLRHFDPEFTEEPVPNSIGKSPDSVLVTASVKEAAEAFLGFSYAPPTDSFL

`Cc1nc(-c2ccc(NS(=O)(=O)c3cc(Cl)ccc3Cl)cc2)nc2[nH]nc(N3CCC4(CC3)COC4)c12` [Example 496]: the IC50 was 6.2 nM in assay [1], 7000 nM in assay [2] and 140 nM in assay [3].
Take `Cc1nc(-c2ccc(NS(=O)(=O)c3cc(Cl)ccc3C#N)cc2)nc2[nH]nc(N)c12` [Example 465]: the IC50 is less than 1.5 nM in assay [1], 1200 nM in assay [2] and 700 nM in assay [3].
Taken in the same sequence, the figures for `Cc1ccc(C#N)c(S(=O)(=O)Nc2ccc(-c3ncc4c(N)n[nH]c4n3)cc2)c1` [Example 453] were 1.6 nM, 2100 nM and 550 nM.
On the same counts, the results for `Cc1n[nH]c2nc(-c3ccc(NS(=O)(=O)c4cc(F)ccc4F)cc3)nc(OC3CCCNC3)c12` (centres unmarked) [Example 321] are 6.9 nM, 38 nM and 680 nM.
Taken in the same sequence, the figures for `Cc1n[nH]c2nc(-c3ccc(NS(=O)(=O)c4cc(Cl)ccc4Cl)cc3)nc(OC3CCCNC3)c12` (centres unmarked) [Example 322] were 2.6 nM, 26 nM and 8 nM.
On to `O=S(=O)(Nc1ccc(-c2nc(OC3CCC(O)CC3)c3cn[nH]c3n2)cc1F)c1cc(Cl)ccc1Cl` (centres unmarked) [Example 439], for which the figures for the IC50 in assay [1], in assay [2] and in assay [3] were 2.5 nM, 110 nM and 44 nM, respectively.
Taken in the same sequence, the figures for `Cc1ccc(C#N)c(S(=O)(=O)Nc2ccc(-c3nc(OC4CCC(O)CC4)c4c(C)n[nH]c4n3)cc2)c1` (centres unmarked) [Example 96] were less than 1.5 nM, 740 nM and 33 nM.
As for `CC(C)COc1nc(-c2ccc(NS(=O)(=O)c3cc(F)ccc3F)cc2)nc2[nH]nc(N)c12` [Example 328], the figures for the half-inhibitory concentration (IC50) in assay [1], in assay [2] and in assay [3] were 170 nM, 150 nM and 94 nM, respectively.
As to `O=S(=O)(Nc1ccc(-c2nc(OC3CCC(O)CC3)c3cn[nH]c3n2)cc1F)c1cc(Cl)ccc1F` (centres unmarked) [Example 440], the IC50 was less than 1.5 nM in assay [1], 240 nM in assay [2] and 81 nM in assay [3].
With `Cc1ccc(F)c(S(=O)(=O)Nc2ccc(-c3nc(OC4CCN(C(C)C)CC4)c4c(C)n[nH]c4n3)cc2)c1` [Example 353], the results for the IC50 in assay [1] and in assay [3] were 3.8 nM and 21 nM, respectively.
